This is an account of results in paper PMC10179505, “Rivastigmine–Benzimidazole Hybrids as Promising Multitarget Metal-Modulating Compounds for Potential Treatment of Neurodegenerative Diseases” (International Journal of Molecular Sciences, 2023).

In data set [1] the test system is Aβ42. The note with it: presence of copper (40 µM), 20 µM inhibitor, thioflavin-T fluorescence; cited from earlier work.
Data set [2] in a line: Fe(III) complexation by spectrophotometric titration. It is filed as physicochemical. On the procedure: (§1) The metal complexation studies were performed by spectrophotometric titration, in the same 50% w/w DMSO/water medium used for both ligands alone, with fitting analysis of the UV-Vis spectra by Psequad. The calculated metal-chelating equilibrium models, included in Table 1, show good chelating capacity towards Cu(II) (pCu~10.3–13.6) and Fe(III) (pFe~16.8–17.4), involving complex species with a 1:1 to 1:2 or 1:1 to 1:3 M/L ratio, respectively. Metal coordination is expected to occur primarily through the phenolic oxygen and the imidazole nitrogen N(3) of the BIM moiety.
(§2) The two positional isomeric hybrids 4c and 5a were titrated, alone or in the presence of the metal ions, in a 50% w/w DMSO/H2O medium, at T = 25.0 ± 0.1 °C and ionic strength of (I) 0.1 M KCl, by using a 0.1 M KOH (50% w/w DMSO/H2O) titrant solution. The glass and Ag/AgCl reference electrodes were previously conditioned in different DMSO/H2O mixtures of increasing DMSO % compositions, and the response of the glass electrode was evaluated by strong acid–strong base (HCl/KOH) calibrations with the determination of the Nernst parameters by Gran’s method. […] The spectrophotometric measurements were carried out in a 250–450 nm (L, Cu/L systems) or 250–650 nm (L, Fe/L systems) wavelength range at pH ca 2.5–8.0. Under these specified experimental conditions, the pKw value (14.95) was determined and subsequently used in the calculations. The stepwise protonation constants of the ligands, Ki = [HiL]/[Hi−1L][H], and the overall metal–complex stability constants, βMmHhLl = [MmHhLl]/[M]^m[H]^h[L]^l, were calculated by fitting the spectrophotometric data with the Psequad program. The metal hydrolysis model was determined under the established experimental conditions (I = 0.1 M KCl, 50% w/w DMSO/H2O, T = 25.0 ± 0.1 °C) and the following values of stability constants were included in the equilibrium models related to the Fe(III)/L and Cu(II)/L systems: log βFeH−1 = −4.07, log βFeH−3 = −11.42; log βCu2H−2 = −9.99. The species distribution curves were obtained with the Hyss program.

The target of data set [3] is T1, hMAO-B (Homo sapiens, UniProt P27338).
T1 construct: purchased Sigma-Aldrich Quimica S.A., Madrid, Spain; host or cells: insect cells (BTI-TN-5B1-4) infected with recombinant baculovirus
T1 sequence (P27338 1-520): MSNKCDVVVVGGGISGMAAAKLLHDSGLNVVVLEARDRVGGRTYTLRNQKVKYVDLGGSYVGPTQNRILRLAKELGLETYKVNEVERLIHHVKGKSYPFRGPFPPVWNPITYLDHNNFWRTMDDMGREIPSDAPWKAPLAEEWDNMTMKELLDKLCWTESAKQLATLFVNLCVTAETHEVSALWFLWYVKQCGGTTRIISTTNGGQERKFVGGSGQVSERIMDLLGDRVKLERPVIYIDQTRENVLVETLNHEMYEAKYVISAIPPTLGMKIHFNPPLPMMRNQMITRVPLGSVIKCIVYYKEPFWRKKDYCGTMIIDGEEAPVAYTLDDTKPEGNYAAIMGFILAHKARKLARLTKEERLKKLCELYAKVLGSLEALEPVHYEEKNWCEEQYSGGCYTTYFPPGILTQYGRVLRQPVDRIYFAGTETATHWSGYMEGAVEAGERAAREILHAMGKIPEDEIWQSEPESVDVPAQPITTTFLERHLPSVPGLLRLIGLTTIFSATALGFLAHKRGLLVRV
Nature of the data set: hMAO-B inhibition (kynuramine to 4-hydroxyquinoline, microsomal recombinant enzyme). The class given is biochemical. On the procedure:
(§3) The inhibitory activity of the rivastigmine hybrids (RIV–BIM) on hMAO-A and hMAO-B was studied using an experimental protocol described elsewhere with some modifications. The outlined hMAO inhibition was assessed in microsomal MAO isoforms prepared from insect cells (BTI-TN-5B1-4) infected with recombinant baculovirus containing cDNA inserts for hMAO-A or hMAO-B (Sigma-Aldrich Quimica S.A., Madrid, Spain) and by measuring the enzymatic conversion rates of kynuramine into 4-hydroxyquinoline. […] All assays were performed under sodium phosphate-buffered conditions (50 mM, pH = 7.4). […] Then, the reaction was started with the addition of hMAO-A or hMAO-B. Initial velocities were determined spectrophotometrically in a microplate reader (Biotek Synergy HT, Winooski, VT, USA) at 37 °C by measuring the formation of 4-hydroxyquinoline at 316 nm, over a period of at least 30 min (interval of 1 min). Data were analyzed using GraphPad PRISM version 6 for Windows (GraphPad Software®, San Diego, CA, USA). The initial velocities, obtained from the linear phase of product formation, were normalized and plotted against the respective inhibitor concentration. IC50 values were obtained from dose–response curves and were expressed as the mean ± standard deviation. IC50 values were determined from at least three independent experiments, each performed in triplicate.

Data set [4] is described as follows: Cu(II) complexation by spectrophotometric titration. It is filed as physicochemical. On the procedure: as §1, §2
For data set [5], the system named is Aβ42. The note with it: absence of copper, 20 µM inhibitor, thioflavin-T fluorescence; cited from earlier work.
A short description of data set [6]: Protonation constants by spectrophotometric titration (Psequad fitting). It is filed as physicochemical. The note with it: pH 7.4, CL = 1 × 10^−5 M. How it is done:
To formulate the model for the metal chelation mechanism of compounds 4c and 5a, their protonation constants were first determined by spectrophotometric titrations in a 50% (w/w) DMSO/H2O medium by fitting the experimental data with the program Psequad. This working medium was adopted to perform all the equilibrium studies due to certain solubility problems of the compounds. Since the concentration of the compound used in cell studies is low (<7 μM), the final corresponding concentration of DMSO in culture media would be much lower (<1%) and also is not expected to induce modifications of biological tissues.
The two positional isomeric hybrids 4c and 5a were titrated, alone or in the presence of the metal ions, in a 50% w/w DMSO/H2O medium, at T = 25.0 ± 0.1 °C and ionic strength of (I) 0.1 M KCl, by using a 0.1 M KOH (50% w/w DMSO/H2O) titrant solution. The glass and Ag/AgCl reference electrodes were previously conditioned in different DMSO/H2O mixtures of increasing DMSO % compositions, and the response of the glass electrode was evaluated by strong acid–strong base (HCl/KOH) calibrations with the determination of the Nernst parameters by Gran’s method. […] Under these specified experimental conditions, the pKw value (14.95) was determined and subsequently used in the calculations. […]

Data set [7] addresses T2, hMAO-A (Homo sapiens, UniProt P21397).
T2 construct: purchased Sigma-Aldrich Quimica S.A., Madrid, Spain; host or cells: insect cells (BTI-TN-5B1-4) infected with recombinant baculovirus
T2 sequence (P21397 1-527): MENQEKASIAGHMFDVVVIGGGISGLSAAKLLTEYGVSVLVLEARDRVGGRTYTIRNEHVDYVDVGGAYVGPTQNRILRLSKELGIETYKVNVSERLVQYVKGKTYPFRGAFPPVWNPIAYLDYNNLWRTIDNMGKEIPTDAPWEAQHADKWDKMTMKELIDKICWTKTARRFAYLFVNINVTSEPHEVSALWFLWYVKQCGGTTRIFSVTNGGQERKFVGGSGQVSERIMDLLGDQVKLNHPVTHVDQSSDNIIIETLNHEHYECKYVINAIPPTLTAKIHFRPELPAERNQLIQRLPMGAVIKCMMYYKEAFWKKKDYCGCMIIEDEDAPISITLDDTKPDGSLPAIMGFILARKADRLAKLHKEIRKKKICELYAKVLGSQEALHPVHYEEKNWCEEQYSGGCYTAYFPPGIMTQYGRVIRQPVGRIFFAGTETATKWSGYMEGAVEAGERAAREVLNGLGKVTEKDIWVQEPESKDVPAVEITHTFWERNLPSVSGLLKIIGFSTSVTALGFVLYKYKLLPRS
As to the kind of experiment: hMAO-A inhibition (kynuramine to 4-hydroxyquinoline, microsomal recombinant enzyme). It is filed as biochemical. The note with it: read-out: % Inhibition (at 10 µM) hMAO-A. How it is done: as §3

Where [8] appears, read: pM = −log[M] at pH 7.4, CL/CM = 10, CM = 10^−6 M.

What is called inhibition is how much of the control response was suppressed. Turning to `CCN(C)C(=O)Oc1cccc(NC(=O)c2cccc3[nH]c(-c4ccccc4O)nc23)c1` [5a], the “Aβ42 Cu-ind. Aggreg. Inhib.” value in data set [1] is on record as 45.4%. In addition, the “log βFemHhLl, global formation constant, species (102)” value in data set [2] (FeL2 (102), T = 25.0 ± 0.1 °C, I = 0.1 M KCl, 50% w/w DMSO/water) is recorded as 23.82(4). Further, the “log βFemHhLl, global formation constant, species (103)” value in data set [2] (FeL3 (103), T = 25.0 ± 0.1 °C, I = 0.1 M KCl, 50% w/w DMSO/water) is 30.20(8). Further, the “log βFemHhLl, global formation constant, species (101)” value in data set [2] (FeL (101), T = 25.0 ± 0.1 °C, I = 0.1 M KCl, 50% w/w DMSO/water) is on record as 12.53(5). For the same compound, in data set [2] (setting [8]), the “pM (pFe)” value worked out at 17.4. The inhibition at 10 µM in data set [3] was 31%; in data set [7], 33%. The “logβCumHhLl, global formation constant, species (1–11)” value in data set [4] (CuH−1L (1–11), T = 25.0 ± 0.1 °C, I = 0.1 M KCl, 50% w/w DMSO/water) is 3.82(8). Besides, the “logβCumHhLl, global formation constant, species (102)” value in data set [4] (CuL2 (102), T = 25.0 ± 0.1 °C, I = 0.1 M KCl, 50% w/w DMSO/water) is recorded as 20.43(5). In addition, in data set [4] (CuL (101), T = 25.0 ± 0.1 °C, I = 0.1 M KCl, 50% w/w DMSO/water), the “logβCumHhLl, global formation constant, species (101)” value is recorded as 11.30(2). Moreover, in data set [4] (calculated at pH 7.4, read-out: conditional dissociation constant (K’d) for the copper complex), the Kd was 0.098 nM. Besides, in data set [4] (setting [8]), the “pM (pCu)” value came out at 13.6. Further, the “Aβ42 Self- Aggreg. Inhib.” value in data set [5] was 44.5%. Also, the “predominant neutral species HL” value in data set [6] is recorded as 94.9%.
